# Patent publication US8907103B2, “Glucagon antagonists” (Metabasis Therapeutics, Inc., priority 2008, dated 2014)
# Like-named read-outs stand apart in the source and are kept apart here.
# Legend:
# [1] = molecular target: T1, human glucagon receptor (Homo sapiens, UniProt P47871); assay: Human glucagon receptor affinity ([125I]glucagon displacement, membrane preparation); assay type: binding
# T1 construct: host or cells: human liver samples or a recombinant cell line (alternatives)
# Method: Compounds provided herein are dissolved in a suitable solvent (e.g., dimethlysulfoxide) at a concentration of 10 mM and then diluted in buffer (e.g., 50 mM Hepes, pH 7.4, 5 mM MgCl2, 1 mM CaCl2, and 0.2% BSA) to concentrations ranging from 1 nM to 100 μM. Compounds (20 μL/well) and [^125I]glucagon at the final concentration of 0.125 nM (20 μl/well) (Perkin Elmer) are added to and mixed in wells of a 96-well plate (Costar, Corning) containing 120 μL of buffer. Next, an appropriate aliquot of a membrane preparation containing the human glucagon receptor (isolated from human liver samples or obtained from a recombinant cell line) is added to the wells. The binding mixtures are incubated for 2 hrs at room temperature. In the meantime, a MultiScreen 96-well filter plate (Millipore) is treated with 200 μL of the buffer, which is vacuumed through the filter just before the binding mixtures are transferred to the plate. At the end of incubation, binding mixtures are transferred to the wells of the MultiScreen 96-well filter plate and filtered through by applying vacuum. The plate is washed once with 200 μL per well of the buffer, and the filters are dried and counted using a gamma counter.
# [2] = system: human hepatocytes; assay: Functional antagonism of glucagon-stimulated glucose production in hepatocytes; assay type: cell-based; conditions: human hepatocyte assay, 1 nM glucagon; read-out: Hu Hepatocyte EC50
# Method: Primary human, monkey, dog, rat, or mouse hepatocytes are seeded onto collagen-coated 24-well plates in Williams E medium (supplemented with 10% fetal bovine serum) and incubated at 37° C. overnight in M199 medium (supplemented with 15 mM glucose and 10 nM human insulin). The following day cells are washed twice with a glucose-free Kreb-bicarbonate buffer, pH 7.4, containing 0.1% BSA. Cells are then incubated at 37° C. with the aforementioned buffer containing 1 nM glucagon and varying concentrations of a glucagon antagonist (0-100 microM). Control wells without glucagon or antagonist are also included. After 1 hour, an aliquot of the medium is removed and analyzed for glucose content by means of the glucose oxidase method. The background glucose levels observed in the control wells are subtracted from the glucagon and antagonist containing wells. A graph of % glucose concentration vs drug concentration is plotted and an EC50 value for inhibition of glucose production generated using Sigmaplot software (SAS, Cary, N.C.). Alternatively, intracellular cAMP levels are measured using standard kits and EC50 values determined by plotting these levels against drug concentration. Antagonists of the glucagon receptor inhibit glucagon-induced cAMP production.
# [3] = human glucagon receptor binding assay, stereo column says racemic or R-isomer, read-out: Hu IC50
# [4] = R-isomer, read-out: Hu 1050 (nM) R
# [5] = S-isomer, read-out: Hu 1050 (nM) S
# T1 sequence (P47871 26-477): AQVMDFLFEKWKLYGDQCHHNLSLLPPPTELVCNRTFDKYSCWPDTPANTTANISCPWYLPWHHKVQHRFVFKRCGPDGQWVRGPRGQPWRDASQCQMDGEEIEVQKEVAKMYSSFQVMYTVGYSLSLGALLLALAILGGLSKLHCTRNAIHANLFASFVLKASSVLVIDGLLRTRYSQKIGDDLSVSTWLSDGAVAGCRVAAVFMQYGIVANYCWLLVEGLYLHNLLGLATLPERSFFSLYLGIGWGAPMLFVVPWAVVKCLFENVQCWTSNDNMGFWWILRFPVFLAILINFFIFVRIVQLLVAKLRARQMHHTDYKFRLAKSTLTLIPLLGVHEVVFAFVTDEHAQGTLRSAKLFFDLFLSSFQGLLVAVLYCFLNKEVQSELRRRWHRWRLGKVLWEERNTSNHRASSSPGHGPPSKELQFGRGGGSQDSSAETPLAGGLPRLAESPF
Compound,"IC50 [1, 3]","IC50 [1, 4]",EC50 [2],"IC50 [1, 5]"
CC(C)(C)c1ccc(-c2ccc(C(Cc3ccc(C(=O)NCCS(=O)(=O)O)cc3)C(=O)Nc3ccc(-c4ccc(Cl)c(Cl)c4)cc3)cc2)cc1 (racemic),10 nM,–,–,–
"Cc1cc(Cl)ccc1-c1ccc(NC(=O)C(Cc2ccc(C(=O)NCCS(=O)(=O)O)cc2)c2ccc(C=CC(C)(C)C)cc2)cc1 (single isomer, unassigned) [drawing 125 R]",–,14 nM,–,–
CC(C)(C)c1ccc(-c2ccc(C(Cc3ccc(C(=O)NCCS(=O)(=O)O)cc3)C(=O)Nc3ccc(C4=CCC(C(C)(C)C)CC4)cc3)cc2)cc1 (racemic),12 nM,–,–,–
Cc1cc(C(F)(F)F)ccc1-c1ccc(NC(=O)C(Cc2ccc(C(=O)NCCS(=O)(=O)O)cc2)c2ccc(C3=CCCCC3)cc2)cc1 (racemic),16 nM,–,78 nM,–
O=C(NCCS(=O)(=O)O)c1ccc(CC(C(=O)Nc2ccc(-c3ccc(C(F)(F)F)cc3Cl)cc2)c2ccc(C3=CCCCC3)cc2)cc1 (racemic),16 nM,–,–,–
Cc1cc(Cl)ccc1-c1ccc(NC(=O)C(Cc2ccc(C(=O)NCCS(=O)(=O)O)cc2)c2cccc(-c3ccc(C(C)(C)C)cc3)c2)cc1 (racemic),15 nM,–,329 nM,–
CC(C)(C)c1ccc(-c2ccc(C(Cc3ccc(C(=O)NCCS(=O)(=O)O)cc3)C(=O)Nc3ccc(-c4cccc(Cl)c4)cc3)cc2)cc1 (racemic),12 nM,–,661 nM,–
"Cc1cc(Cl)ccc1-c1ccc(NC(=O)C(Cc2ccc(C(=O)NCCS(=O)(=O)O)cc2)c2ccc(C3=CCC(C(C)(C)C)CC3)cc2)cc1 (single isomer, unassigned) [drawing 129 S]",–,–,–,19 nM
"Cc1cc(Cl)ccc1-c1ccc(NC(=O)C(Cc2ccc(C(=O)NCCS(=O)(=O)O)cc2)c2ccc(C=CC(C)(C)C)cc2)cc1 (single isomer, unassigned) [drawing 125 S]",–,–,–,61 nM
Cc1cc(C)c2oc(-c3ccc(NC(=O)C(Cc4ccc(C(=O)NCCS(=O)(=O)O)cc4)c4ccc(-c5ccc(C(C)(C)C)cc5)cc4)cc3)nc2c1 (racemic),11 nM,–,560 nM,–
Cc1cc(Cl)ccc1-c1ccc(NC(=O)C(Cc2ccc(C(=O)NCCS(=O)(=O)O)cc2)c2cccc(C3=CCC(C)(C)C=C3)c2)cc1 (racemic),19 nM,–,108 nM,–
"Cc1cc(Cl)ccc1-c1ccc(NC(=O)C(Cc2ccc(C(=O)NCCS(=O)(=O)O)cc2)c2ccc(C3=CCC(C(C)(C)C)CC3)cc2)cc1 (single isomer, unassigned) [drawing 127 S]",–,–,–,20 nM
Cc1cc(Cl)ccc1-c1ccc(NC(=O)C(Cc2ccc(C(=O)NCCS(=O)(=O)O)cc2)c2ccc(-c3ccc(C(C)(C)C)cc3)cc2)cc1 (stereo not shown) [drawing 131 R],–,11 nM,–,–
"Cc1cc(Cl)ccc1-c1ccc(NC(=O)C(Cc2ccc(C(=O)NCCS(=O)(=O)O)cc2)c2ccc(C3=CCC(C(C)(C)C)CC3)cc2)cc1 (single isomer, unassigned) [drawing 129 R]",–,7 nM,–,–
CC1(C)C=CC(c2cccc(C(Cc3ccc(C(=O)NCCS(=O)(=O)O)cc3)C(=O)Nc3ccc(-c4ccc(Cl)cc4Cl)cc3)c2)=CC1 (racemic),18 nM,–,61 nM,–
Cc1ccc(-c2cc(Cl)c(NC(=O)C(Cc3ccc(C(=O)NCCS(=O)(=O)O)cc3)c3ccc(C=CC(C)(C)C)cc3)cc2C)cc1F (racemic),20 nM,–,143 nM,–
CC(C)(C)c1ccc(-c2ccc(C(Cc3ccc(C(=O)NCCS(=O)(=O)O)cc3)C(=O)Nc3ccc(-c4c(Cl)cccc4Cl)cc3)cc2)cc1 (racemic),18 nM,–,–,–
CC1(C)CC=C(c2ccc(C(Cc3ccc(C(=O)NCCS(=O)(=O)O)cc3)C(=O)Nc3ccc(-c4ccc(C(F)(F)F)cc4Cl)cc3)cc2)CC1 (racemic),15 nM,–,137 nM,–
CC(C)(C)c1ccc(-c2ccc(C(Cc3ccc(C(=O)NCCS(=O)(=O)O)cc3)C(=O)Nc3ccc(-c4cc(Cl)cc(Cl)c4)cc3)cc2)cc1 (racemic),15 nM,–,132 nM,–
CC12CCC(C=C1c1ccc(C(Cc3ccc(C(=O)NCCS(=O)(=O)O)cc3)C(=O)Nc3ccc(-c4nc5ccccc5o4)cc3)cc1)C2(C)C (racemic),18 nM,–,27 nM,–
CC(C)(C)C1CCC(c2ccc(C(Cc3ccc(C(=O)NCCS(=O)(=O)O)cc3)C(=O)Nc3ccc(-c4ccc(C(F)(F)F)cc4Cl)cc3)cc2)CC1 (racemic),12 nM,–,30 nM,–

Compound,"IC50 [1, 3]","IC50 [1, 4]",EC50 [2],"IC50 [1, 5]"
"Cc1cccc2oc(-c3ccc(NC(=O)C(Cc4ccc(C(=O)NCCS(=O)(=O)O)cc4)c4ccc(-c5ccc(C(C)(C)C)cc5)cc4)cc3)nc12 (single isomer, unassigned) [drawing 135 R]",–,10 nM,–,–
CC(C)(C)c1ccc(-c2cccc(C(Cc3ccc(C(=O)NCCS(=O)(=O)O)cc3)C(=O)Nc3ccc(-c4ccc(Cl)cc4Cl)cc3)c2)cc1 (racemic),15 nM,–,215 nM,–
Cc1cc(Cl)ccc1-c1ccc(NC(=O)C(Cc2ccc(C(=O)NCCS(=O)(=O)O)cc2)c2cccc(C3=CCCCC3)c2)cc1 (racemic),14 nM,–,32 nM,–
CC(C)(C)C1CCC(c2ccc(C(Cc3ccc(C(=O)NCCS(=O)(=O)O)cc3)C(=O)Nc3ccc(-c4ccc(Cl)cc4Cl)cc3)cc2)CC1 (racemic) [drawing 110],18 nM,–,–,–
CC(C)(C)c1ccc(-c2ccc(C(Cc3ccc(C(=O)NCCS(=O)(=O)O)cc3)C(=O)Nc3ccc(-c4ccccc4Cl)cc3)cc2)cc1 (racemic),18 nM,–,412 nM,–
Cc1ccc(-c2ccc(NC(=O)C(Cc3ccc(C(=O)NCCS(=O)(=O)O)cc3)c3ccc(C4=CCC(C)(C)CC4)cc3)c(Cl)c2)cc1Cl (racemic),16 nM,–,–,–
CC(C)(C)C1CCC(c2ccc(C(Cc3ccc(C(=O)NCCS(=O)(=O)O)cc3)C(=O)Nc3ccc(-c4nc5ccccc5o4)cc3)cc2)CC1 (racemic),18 nM,–,161 nM,–
Cc1ccc(-c2ccc(NC(=O)C(Cc3ccc(C(=O)NCCS(=O)(=O)O)cc3)c3ccc(-c4ccc(C(C)(C)C)cc4)cc3)cc2)cc1Cl (racemic),10 nM,–,–,–
CC(C)(C)C1CC=C(c2ccc(C(Cc3ccc(C(=O)NCCS(=O)(=O)O)cc3)C(=O)Nc3ccc(-c4nc5ccccc5o4)cc3)cc2)CC1 (racemic),8 nM,–,116 nM,–
Cc1ccc(-c2ccc(NC(=O)C(Cc3ccc(C(=O)NCCS(=O)(=O)O)cc3)c3ccc(C4=CCC(C)(C)CC4)cc3)c(Cl)c2)c(C)c1 (racemic),14 nM,–,–,–
Cc1cc(Cl)ccc1-c1ccc(NC(=O)C(Cc2ccc(C(=O)NCCS(=O)(=O)O)cc2)c2ccc(C3=CCC(C)(C)CC3)cc2)cc1 (stereo not shown) [drawing 133 R],–,10 nM,–,–
Cc1cc(Cl)ccc1-c1ccc(NC(=O)C(Cc2ccc(C(=O)NCCS(=O)(=O)O)cc2)c2ccc(-c3ccc(C(C)(C)C)cc3)cc2)c(Cl)c1 (racemic),19 nM,–,–,–
CC1(C)CC=C(c2ccc(C(Cc3ccc(C(=O)NCCS(=O)(=O)O)cc3)C(=O)Nc3ccc(-c4ccc(C(C)(C)C)cc4)cc3Cl)cc2)CC1 (racemic),10 nM,–,–,–
CC1(C)CC=C(c2ccc(NC(=O)C(Cc3ccc(C(=O)NCCS(=O)(=O)O)cc3)c3ccc(-c4ccc(C(C)(C)C)cc4)cc3)cc2)CC1 (racemic),18 nM,–,60 nM,–
Cc1cc(C)c(-c2ccc(NC(=O)C(Cc3ccc(C(=O)NCCS(=O)(=O)O)cc3)c3ccc(C4=CCC(C)(C)CC4)cc3)cc2)c(C)c1 (racemic),12 nM,–,–,–
Cc1cc(NC(=O)C(Cc2ccc(C(=O)NCCS(=O)(=O)O)cc2)c2ccc(-c3ccc(C(C)(C)C)cc3)cc2)ccc1-c1nc2ccccc2o1 (racemic),8 nM,–,167 nM,–
"Cc1cc(Cl)ccc1-c1ccc(NC(=O)C(Cc2ccc(C(=O)NCCS(=O)(=O)O)cc2)c2ccc(C3=CCC(C(C)(C)C)CC3)cc2)cc1 (single isomer, unassigned) [drawing 127 R]",–,6 nM,–,–
Cc1ccc(Cl)cc1-c1ccc(NC(=O)C(Cc2ccc(C(=O)NCCS(=O)(=O)O)cc2)c2ccc(-c3ccc(C(C)(C)C)cc3)cc2)cc1 (racemic),10 nM,–,192 nM,–
"Cc1cccc2oc(-c3ccc(NC(=O)C(Cc4ccc(C(=O)NCCS(=O)(=O)O)cc4)c4ccc(-c5ccc(C(C)(C)C)cc5)cc4)cc3)nc12 (single isomer, unassigned) [drawing 135 S]",–,–,–,49 nM
CC(C)(C)c1ccc(-c2ccc(C(Cc3ccc(C(=O)NCCS(=O)(=O)O)cc3)C(=O)Nc3ccc(-c4nc5ccccc5o4)cc3)cc2)cc1 (racemic),12 nM,–,241 nM,–
